Results: US9346839B2
Entries after “also recorded” stand apart in the source; their conditions may differ.

Experiments:
Cells [1] = assay: Trypan blue dye exclusion (cell viability and toxicity); format: cell-based; conditions: 1, 10, 50, 100 μM for 48 to 66 hours, compared to vehicle
Experimental: The trypan blue dye exclusion is commonly used for measuring cell viability and toxicity. 48-66 hours after treatment of ABAD compounds, the trypan blue exclusion experiments were performed. In brief, cells plated in 96-well plates were washed with the balanced salt solution (Hanks-Balanced Salts/HESS) once, then replaced with HBSS including trypan blue solution to the final concentration of 0.2% (Sigma-Aldrich, St. Louis, Mo.), and mixed thoroughly. After standing at room temperature for 5 minutes, the cells were washed with HBSS again and then maintained in the well with HBSS. Both the stained and unstained cells in each well were counted under a microscope (Nikon E400). The calculated percentage of unstained cells represented the percentage of viable cells. Cell viability(%)=total viable cells (unstained)/total cells (stained and unstained)×100.
(§1) Effect of ABAD Inhibitor on Cell Survival and Toxicity. The effect of ABAD inhibitors on cell viability and toxicity was assessed using MTT reduction assay and trypan blue exclusion, which are widely used to assess cell survival and toxicity and to screen for drugs toxicity. Cells were treated with a range of concentrations of ABAD compound (4 and 8) at 1, 10, 50, 100 μM for 48 to 66 hours.

mAPP mice [2] = assay: Morris water maze learning and memory in AD transgenic mice; format: in vivo; conditions: for learning memory: i.p. injection; for swim strategy used to locate the hidden platform: representative swim paths, mAPP mice; for latency to find the hidden platform: treated AD mice compared to untreated AD mice; for number of crossings at the target location / percent of time spent in the target quadrant: treated mAPP mice vs untreated mAPP mice, probe trial
Experimental: Wild-type mice (Non Tg) were also administered Compound 8 (n=5) and vehicle (n=5). Each mouse was given four 60-second trials per day for six consecutive days to find the hidden platform in a Morris water maze.
Wild-type mice were also administered Compound 8 […]. Each mouse was given four 60-second trials per day for seven consecutive days to find the hidden platform in a Morris water maze.
Each mouse was given four 60-second trials per day for six consecutive days to find the hidden platform in a Morris water maze.
In addition, the effect of Compounds 4 and 8 on learning and memory of Alzheimer's Disease (AD) transgenic mice was evaluated. Six month and 9-14 month-old transgenic mice overexpressing a mutated form of the human amyloid precursor protein (mAPP mice) and their wild-type (non Tg) littermates were used in this study. […] Moreover, performance in a spatial MWM trial was evaluated using crossings over the platform area (an index of memory precision; Morris (1984) J. Neurosci. Methods 11:47-60), percent of time spent in target quadrant (an index of memory retrieval; Morris (1984) J. Neurosci. Methods 11:47-60), and swim paths.

mAPP mice [3] = assay: Hippocampal long-term potentiation (LTP) in slices from treated mice; format: in vivo
Experimental: LTP was induced by theta-burst stimulation (TBS) 20 minutes after baseline recordings in hippocampal slices from Non-Tg mice treated with vehicle (n=9 slices from 3 mice), Non-Tg mice treated with Compound 8 (n=9 slices from 3 mice), mAPP mice treated with vehicle (n=8 slices from 3 mice), and mAPP mice treated with Compound 8 (n=8 slices from 3 mice). LTP is expressed as percentage potentiation of baseline (100%) (FIG. 5A).
LTP is expressed as percentage potentiation of baseline (100%) (FIG. 7A).
Synaptic failure in AD is largely reflected by impaired long-term synaptic plasticity in terms of long-term potentiation (LTP). […] Representative field excitatory post-synaptic potentials (fEPSP) waveforms are provided in FIGS. 5A and 7A and the residual potentiation from fEPSP slopes occurring over the last 5 minutes of LTP recording are provided in FIGS. 5B and 7B.

Cells [4] = assay: MTT reduction assay (cell survival and toxicity); format: cell-based; conditions: 1, 10, 50, 100 μM for 48 to 66 hours, compared to vehicle
Experimental: Cell Survival and Toxicity Assay. The MTT (3-(4,5-dimethylthiazol-2-yl)-2,5-diphenyltetrazolium bromide) assay, which is widely used to measure cell proliferation and to screen for anticancer drugs, was used for assessing cell viability. Cells were treated with a range of ABAD compounds at 1, 10, 50, and 100 μM for 48 hours and then subjected to MTT reduction assay following the manufacture's instruction.
as §1

Row | SMILES | increased percentage of trypan blue-positive cells (Cells [1]) | learning memory (mAPP mice [2]; 6-months old mAPP mice) | learning memory (mAPP mice [2]; 9-14-months old mAPP mice) | swim strategy used to locate the hidden platform (mAPP mice [2]) | latency to find the hidden platform (mAPP mice [2]) | number of crossings at the target location (mAPP mice [2]) | percent of time spent in the target quadrant (mAPP mice [2]) | hippocampal long-term potentiation (LTP) (mAPP mice [3]) | MTT reduction (Cells [4]) | learning memory (mAPP mice [2]; 9-months old mAPP mice)
1 | COc1ccc2nc(N[C@@H](c3ccc(O)cc3)P(=O)(OC)OC)sc2c1 (racemic) [Compound 8, Dimethyl ((4-hydroxyphenyl)((6-methoxybenzo[d]thiazol-2-yl)amino)methyl)phosphonate] | did not exhibit | improves learning memory | improves learning memory | improvement in the swim strategy | significantly shorter latency | significantly more | significantly more | impairments were diminished; also recorded: protective effects | did not exhibit decreased MTT reduction | 
2 | COC(=O)c1cc([C@H](Nc2nc3ccc(OC)cc3s2)P(=O)(OC)OC)ccc1O [Compound 4, Methyl 5-((dimethoxyphosphoryl)((6-methoxybenzo[d]thiazol-2-yl)amino)methyl)-2-hydroxybenzoate] | did not exhibit |  |  | improvement in the swim strategy | significantly shorter latency | significantly more | significantly more | impairments were diminished; also recorded: protective effects | did not exhibit decreased MTT reduction | improves learning memory
